target: Human immunodeficiency virus type 1 integrase (Human immunodeficiency virus 1, UniProt Q7ZJM1); assay: Antiviral activity against HIV1 integrase
Sequence (Q7ZJM1 whole entry): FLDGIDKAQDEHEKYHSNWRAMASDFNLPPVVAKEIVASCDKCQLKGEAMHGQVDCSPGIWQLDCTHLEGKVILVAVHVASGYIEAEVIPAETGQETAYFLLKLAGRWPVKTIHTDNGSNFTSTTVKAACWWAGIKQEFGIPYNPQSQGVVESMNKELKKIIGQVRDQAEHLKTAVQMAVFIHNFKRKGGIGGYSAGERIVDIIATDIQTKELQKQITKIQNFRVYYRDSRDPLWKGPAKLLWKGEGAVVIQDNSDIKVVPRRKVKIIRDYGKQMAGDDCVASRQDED

IC50 | Compound
230 µM | Oc1cccc2ccc(/C=C/c3cccc(Cl)c3)nc12
> 333 µM | Cc1ccc2c(N=O)ccc(O)c2n1
230 µM | O=C(O)c1ccc2ccc(/C=C/c3cccc(Cl)c3)nc2c1

Compound | IC50
COC(Nc1cc(Cl)c([N+](=O)[O-])cc1Cl)c1ccc2cccc(O)c2n1 (centres undefined) | 230 µM

Source: ChEMBL document CHEMBL1149418, “Intermolecular interactions in the crystal structures of potential HIV-1 integrase inhibitors” (Bioorg Med Chem Lett, 2006)
